Data reported in patent publication US20250353873A1, “COMPOUNDS AND METHODS FOR MODULATING APOE EXPRESSION” (Ionis Pharmaceuticals, Inc., priority 2024, published 2025).
Strand notation (5' to 3'): a small letter for the sugar, then the base; units joined by * are phosphorothioate-linked, units joined directly phosphodiester-linked; [ ] holds rarer units or linkages, { } end groups; capitals alone tell only the bases. [ms] = mesyl phosphoramidate linkage; e = 2'-O-(2-methoxyethyl) (MOE); [5mC] = 5-methylcytosine; d = 2'-deoxy (DNA)

What was measured:
human APOE RNA [1] = experiment: Activity in APOE 1549 knock-in mice, single ICV bolus, 4 weeks (Example 8); assay type: in vivo; conditions: n = 2, single ICV bolus of 300 μg, four weeks post treatment, Table 18
Experimental: Modified oligonucleotides described above were tested in the 1549 APOE knock-in mouse model described above.
APOE knock-in mice were divided into groups of either 2 or 6 mice each as described in the tables below. Each mouse received a single intracerebroventricular (ICV) bolus of 300 μg of modified oligonucleotide. A group of either 3 or 6 mice received a single ICV bolus with PBS as a negative control.
Four weeks post treatment, mice were sacrificed and RNA was extracted from cortical brain tissue and spinal cord for quantitative real-time RT-PCR analysis of RNA expression of APOE using primer probe set RTS3073 (described herein above). APOE RNA levels were normalized to mouse Ppia. Mouse Ppia was amplified using primer probe set m_cyclo24 (described herein above). Results are presented as percent human APOE RNA relative to the amount of human APOE RNA in PBS treated animals, (% control). Each experiment is identified in separate tables below.

human APOE RNA [2] = experiment: Activity in APOE C57BL/6NTac-Apoeem7250 knock-in mice, single ICV bolus, 20 weeks (Example 13); assay type: in vivo; conditions: single ICV bolus 300 μg, 20 weeks post treatment, normalized to mouse Ppia
Outline: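 Cortical and spinal cord RNA was assayed by real-time RT-PCR for human APOE, normalized to mouse Ppia and reported as percent of PBS controls. Tissue was taken twenty weeks after one 300 μg intracerebroventricular bolus in APOE knock-in mice, 4 per group.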

human APOE RNA [3] = experiment: Dose-dependent inhibition of human APOE RNA in HepG2 cells, electroporation, 24 hours (Example 6); assay type: cell-based
Outline: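 IC50 derived from APOE RNA levels, given as percent of untreated control after GAPDH normalization (probe sets RTS3073 and RTS104). Oligonucleotides were delivered at multiple concentrations by electroporation into HepG2 cells seeded at 50,000 per well.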

| Substance | APOE RNA (% control) Cortex (human APOE RNA [1]) [% control] | APOE RNA (% control) Spinal Cord (human APOE RNA [1]) [% control] | APOE RNA (% control) Cortex (human APOE RNA [2]) [% control] | APOE RNA (% control) Spinal Cord (human APOE RNA [2]) [% control] | IC50 (human APOE RNA [3]) [µM] | APOE RNA (% UTC) (human APOE RNA [3]; 5 nM) | APOE RNA (% UTC) (human APOE RNA [3]; 13 nM) | APOE RNA (% UTC) (human APOE RNA [3]; 33 nM) | APOE RNA (% UTC) (human APOE RNA [3]; 82 nM) | APOE RNA (% UTC) (human APOE RNA [3]; 205 nM) | APOE RNA (% UTC) (human APOE RNA [3]; 512 nM) | APOE RNA (% UTC) (human APOE RNA [3]; 1,280 nM) | APOE RNA (% UTC) (human APOE RNA [3]; 3,200 nM) | APOE RNA (% UTC) (human APOE RNA [3]; 8,000 nM) | APOE RNA (% UTC) (human APOE RNA [3]; 20,000 nM) |
| --- | --- | --- | --- | --- | --- | --- | --- | --- | --- | --- | --- | --- | --- | --- | --- |
| 1736520: 6-10-4 MOE gapmer CTTGGTGAATCTTTATTAAA, linkages sossoszzzssssssssss (e[5mC]*eTeT*eG*eGeT*dG[ms]dA[ms]dA[ms]dT*d[5mC]*dT*dT*dT*dA*dT*eT*eA*eA*eA) [compound 1736520] | 41 | 32 | 65 | 62 | 0.57 | 109 | 87 | 92 | 72 | 62 | 34 | 28 | 11 | 11 | 83 |
| 1736522: 6-10-4 MOE gapmer CTTGGTGAATCTTTATTAAA, linkages sooosszzssssssssoss (e[5mC]*eTeTeGeG*eT*dG[ms]dA[ms]dA*dT*d[5mC]*dT*dT*dT*dA*dT*eTeA*eA*eA) [compound 1736522] | 41 | 39 | 64 | 56 | 1.38 | 110 | 88 | 90 | 82 | 67 | 59 | 45 | 41 | 18 | 43 |
| 1736523: 6-10-4 MOE gapmer CTTGGTGAATCTTTATTAAA, linkages ssoooszzssssssssoss (e[5mC]*eT*eTeGeGeT*dG[ms]dA[ms]dA*dT*d[5mC]*dT*dT*dT*dA*dT*eTeA*eA*eA) [compound 1736523] | 42 | 34 | 73 | 44 | 0.67 | 97 | 114 | 108 | 79 | 78 | 47 | 29 | 39 | 5 | 4 |
| 1736524: 6-10-4 MOE gapmer CTTGGTGAATCTTTATTAAA, linkages sssooozzssssssssoss (e[5mC]*eT*eT*eGeGeTdG[ms]dA[ms]dA*dT*d[5mC]*dT*dT*dT*dA*dT*eTeA*eA*eA) [compound 1736524] | 36 | 31 | 67 | 62 | 1.09 | 97 | 101 | 89 | 91 | 66 | 66 | 39 | 34 | 28 | 17 |
| 1736525: 6-10-4 MOE gapmer CTTGGTGAATCTTTATTAAA, linkages sooosszzsssssssssss (e[5mC]*eTeTeGeG*eT*dG[ms]dA[ms]dA*dT*d[5mC]*dT*dT*dT*dA*dT*eT*eA*eA*eA) [compound 1736525] | 35 | 41 | 71 | 118 | 1.28 | 101 | 100 | 106 | 113 | 70 | 69 | 37 | 42 | 22 | 7 |
| 1736526: 6-10-4 MOE gapmer CTTGGTGAATCTTTATTAAA, linkages ssoooszzsssssssssss (e[5mC]*eT*eTeGeGeT*dG[ms]dA[ms]dA*dT*d[5mC]*dT*dT*dT*dA*dT*eT*eA*eA*eA) [compound 1736526] | 35 | 42 | 67 | 68 | 1.15 | 89 | 114 | 100 | 85 | 71 | 51 | 58 | 28 | 25 | 18 |
| 1736527: 6-10-4 MOE gapmer CTTGGTGAATCTTTATTAAA, linkages sssooozzsssssssssss (e[5mC]*eT*eT*eGeGeTdG[ms]dA[ms]dA*dT*d[5mC]*dT*dT*dT*dA*dT*eT*eA*eA*eA) [compound 1736527] | 37 | 54 | 64 | 58 | 1.58 | 104 | 108 | 96 | 97 | 92 | 63 | 37 | 37 | 34 | 23 |
